This note sets out measurements from patent publication US20050143391A1, “Heterocyclic amides with alpha-4 integrin antagonist activity” (J. Uriach Y Compañia S.A., priority 2002, published 2005).

Broadly, the IC50 is the concentration that inhibits the measured activity by half. A low value points to higher potency.

For this experiment, the target named is T1, integrin α4β1 (Homo sapiens, UniProt P05556+P13612).
T1 construct: endogenous in cells; host or cells: Jurkat cells
The experiment in a line: Inhibition of α4β1-dependent cell adhesion (Jurkat cells to peptide CS-1). The experiment is classed as cell-based. Conditions: adhesion of Jurkat cells to CS-1-coated plates; products preincubated with cells at 37° C. for 30 minutes; at least 6 product concentrations. The protocol: Inhibition of α4β1-Dependent Cell Adhesion
Inhibition of α4β1-dependent cell adhesion was assayed by evaluating the interaction between the peptide CS-1 (H-CLHGPEILDVPST-CONH2) and Jurkat cells (T lymphocyte cell line expressing activated integrin α4β1 but not integrin α4β7) after preincubation of said cells with the compounds of formula I to be tested. The peptide CS-1 was synthesized by conventional solid phase chemistry and purified by HPLC. Its identity was determined by elemental analysis and mass spectroscopy.
1.—Preparation of CS-1-Coated Plates
96-black well plates (Costar 3925) were used. 200 μL of 2% bovine serum albumin solution (BSA, Sigma α4503) was added per well and the plate was incubated for 2 hours at 37° C. The solution was discarded and the plate was washed twice with 200 μL of phosphate buffered saline solution (PBS, Gibco 14190-094) per well. Then, 200 μL of 10 μg/mL N-succinimidyl 3-(2-pyridyldithio)propionate solution (SPDP, Sigma P-3415) was added per well, and the plate was incubated at 37° C. for 30 minutes. The remaining solution was discarded and the plate was twice washed with 200 μL per well of PBS. Next, 200 μL of 25 μg/mL CS-1 peptide solution (equivalent to 5 μg/well) was added per well and the plate was incubated at 37° C. for 2 hours and then overnight at 4° C.
2.—Jurkat Cell Line: Culture and Fluorescent Labelling
Jurkat cells were kept in culture at a density comprised between 2×10^5 and 1.5×10^6 cells/mL in 1640 RPMI medium (Gibco 21875-034) enriched with 10% fetal calf serum (FCS, Gibco 10270-106).
50×10^6 cells were extracted, centrifuged (1200 rpm, 10 min, room temperature) and the medium was discarded. Cells were resuspended in 5 mL of RPMI, and 10 μL of a 1 mM solution of the fluorophore calceine.AM (Molecular Probes, C-3100) was added. The suspension was incubated for 30 min at 37° C. in the darkness, with occasional shaking. 40 mL of RPMI was added to stop the labelling and the suspension was centrifuged (1200 rpm, 10 min, room temperature). The medium was discarded, and the labelled cells were washed with 40 mL of RPMI in order to remove the unincorporated fluorescent probe. Finally, cells were resuspended in RPMI enriched with 10% FCS to obtain a 8×10^6 cells/mL suspension.
The plate previously prepared was twice washed with 200 μL per well of PBS and blocked with 200 μL of 1% BSA for at least 1 hour at room temperature.
The products to be tested were dissolved in dimethylsulfoxide at a concentration of 10 mM and dilutions thereof were prepared in RPMI medium enriched with 10% FCS. The products were preincubated with the Jurkat cells at 37° C. for 30 minutes, at a product concentration comprised between 1 nM and 10 μM, at a cell density of 4×10^6 cells/mL and at a maximal dimethylsulfoxide concentration of 0.1%.
100 μL of the resulting cell-product supsension was added per well (cellular density 4×10^5 cells/well). The product was omitted in the control wells and cells or CS-1 were omitted in the blanks. The plate was incubated for 60 min at room temperature in the-darkness, was twice washed with 200 μL per well of RPMI and then 100 μL of PBS was added. The plate was read with a fluorescence reader at an excitation wavelength of 485 nm and at an emission wavelength of 530 nm.
Maximal adhesion (100%) was determined as the average of the fluorescence intensities (FI) of the control wells, and the minimal adhesion as the average FI of the blanks. The adhesion inhibition percentage was determined using the following formula: [formula]
The results are expressed as the IC50 values (concentration producing 50% inhibition). IC50 values were calculated by testing at least 6 product concentrations and by adjusting the inhibition percentages to a dose-response curve of variable slope.

Molecules are shown by their SMILES.

T1 sequence (P13612 34-1032): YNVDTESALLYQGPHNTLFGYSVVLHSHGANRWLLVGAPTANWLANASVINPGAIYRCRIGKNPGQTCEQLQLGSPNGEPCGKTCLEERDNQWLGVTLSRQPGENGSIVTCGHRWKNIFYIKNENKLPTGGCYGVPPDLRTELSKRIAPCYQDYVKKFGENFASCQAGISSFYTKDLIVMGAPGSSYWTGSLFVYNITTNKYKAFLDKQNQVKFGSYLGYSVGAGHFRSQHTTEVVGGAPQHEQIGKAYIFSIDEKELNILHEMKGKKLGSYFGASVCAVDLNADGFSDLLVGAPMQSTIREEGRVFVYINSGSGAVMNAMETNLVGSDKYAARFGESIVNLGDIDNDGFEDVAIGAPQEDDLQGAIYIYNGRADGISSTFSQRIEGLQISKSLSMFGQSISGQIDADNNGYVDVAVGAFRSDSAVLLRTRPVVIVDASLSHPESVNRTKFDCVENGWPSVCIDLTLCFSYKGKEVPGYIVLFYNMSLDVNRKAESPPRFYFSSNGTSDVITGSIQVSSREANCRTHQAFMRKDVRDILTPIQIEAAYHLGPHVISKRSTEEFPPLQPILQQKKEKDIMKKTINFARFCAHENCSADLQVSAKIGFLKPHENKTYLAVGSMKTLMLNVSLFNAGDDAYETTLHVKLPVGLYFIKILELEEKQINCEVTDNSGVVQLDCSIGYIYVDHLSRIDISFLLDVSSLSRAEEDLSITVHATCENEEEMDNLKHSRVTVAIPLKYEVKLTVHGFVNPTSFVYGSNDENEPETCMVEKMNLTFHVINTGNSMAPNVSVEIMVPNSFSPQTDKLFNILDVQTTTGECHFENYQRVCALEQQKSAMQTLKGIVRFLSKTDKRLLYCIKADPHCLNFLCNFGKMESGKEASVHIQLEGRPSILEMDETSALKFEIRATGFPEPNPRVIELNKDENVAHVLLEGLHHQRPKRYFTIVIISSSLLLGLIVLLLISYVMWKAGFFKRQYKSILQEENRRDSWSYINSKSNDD
T1 sequence (P05556 21-798): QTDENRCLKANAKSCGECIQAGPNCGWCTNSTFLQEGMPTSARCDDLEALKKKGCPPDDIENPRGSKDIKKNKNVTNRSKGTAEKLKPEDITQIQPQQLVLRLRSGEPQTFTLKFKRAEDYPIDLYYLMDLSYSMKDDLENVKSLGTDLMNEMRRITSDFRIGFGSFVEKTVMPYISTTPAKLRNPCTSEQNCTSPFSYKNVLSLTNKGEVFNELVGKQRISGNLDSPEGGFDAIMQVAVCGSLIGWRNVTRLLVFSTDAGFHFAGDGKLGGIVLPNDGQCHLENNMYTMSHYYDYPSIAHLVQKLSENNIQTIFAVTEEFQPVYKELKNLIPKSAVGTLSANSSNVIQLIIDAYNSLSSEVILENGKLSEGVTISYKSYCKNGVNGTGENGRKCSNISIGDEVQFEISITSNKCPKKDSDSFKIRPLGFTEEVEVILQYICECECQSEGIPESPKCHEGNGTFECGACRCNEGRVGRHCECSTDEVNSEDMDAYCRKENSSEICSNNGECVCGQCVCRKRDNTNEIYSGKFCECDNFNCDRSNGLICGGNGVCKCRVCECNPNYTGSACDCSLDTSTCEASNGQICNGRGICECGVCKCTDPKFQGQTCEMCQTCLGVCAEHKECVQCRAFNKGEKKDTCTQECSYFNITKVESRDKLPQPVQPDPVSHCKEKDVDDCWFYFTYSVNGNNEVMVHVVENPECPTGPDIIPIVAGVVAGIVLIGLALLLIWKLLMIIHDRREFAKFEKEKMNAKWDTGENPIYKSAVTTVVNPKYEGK

Take `Cc1nc2cnccc2n1CC1CCN(C(=O)CC[C@H](NC(=O)[C@@H]2CCCN2S(=O)(=O)c2cc(Cl)cc(Cl)c2)C(=O)O)CC1` [Example 72, (2S)-2-[1-(3,5-Dichlorophenylsulfonyl)-L-prolylamino]-5-[4-(2-methylimidazo[4,5-c]pyridin-1-ylmethyl)piperidin-1-yl]-5-oxopentanoic Acid]: the IC50 was 15 nM.
Then `CC(C)CC(=O)NCC1CCN(C(=O)CC[C@H](NC(=O)[C@@H]2CCCN2S(=O)(=O)c2cc(Cl)cc(Cl)c2)C(=O)O)CC1` [Example 55, (2S)-2-[1-(3,5-Dichlorophenylsulfonyl)-L-prolylamino]-5-[4-[(3-methylbutanoylamino)methyl]piperidin-1-yl]-5-oxopentanoic Acid], with 58 nM.
For the compound `CCN(CC)CC1CCN(C(=O)CC[C@H](NC(=O)[C@@H]2CCCN2S(=O)(=O)c2cc(Cl)cc(Cl)c2)C(=O)O)CC1` [Example 88, (2S)-2-[1-(3,5-Dichlorophenylsulfonyl)-L-prolylamino]-5-[4-(diethylaminomethyl)piperidin-1-yl]-5-oxopentanoic Acid], the IC50 turned out to be 83.9 nM. This IC50 and that of the compound before are within 1.5-fold of each other.
With `CN1CCN(C(=O)OCCC2CCN(C(=O)NC[C@H](NC(=O)[C@@H]3CCCN3S(=O)(=O)c3cc(Cl)cc(Cl)c3)C(=O)O)CC2)CC1` [Example 116, (2S)-2-[1-(3,5-Dichlorophenylsulfonyl)-L-prolyl]amino-3-[[4-[2-[(4-methylpiperazin-1-yl)carbonyloxy]ethyl]piperidin-1-ylcarbonyl]amino]propionic Acid], 9.8 nM corresponded to half-maximal inhibition (IC50). Against the preceding compound, the IC50 is about 8.6-fold lower.
Turning to `O=C(O)[C@H](CCC(=O)N1CCC(Cn2c(=O)[nH]c3cnccc32)CC1)NC(=O)[C@@H]1CCCN1S(=O)(=O)c1cc(Cl)cc(Cl)c1` [Example 86, (2S)-2-[1-(3,5-Dichlorophenylsulfonyl)-L-prolylamino]-5-oxo-5-[4-(2-oxo-2,3-dihydroimidazo[4,5-c]pyridin-1-ylmethyl)piperidin-1-yl]pentanoic Acid], it took 18 nM to reach half-maximal inhibition (IC50).
As to `CCc1nc2c(C)cc(C)nc2n1CCC1CCN(C(=O)CC[C@H](NC(=O)[C@@H]2CCCN2S(=O)(=O)c2cc(Cl)cc(Cl)c2)C(=O)O)CC1` [Example 59, (2S)-2-[1-(3,5-Dichlorophenylsulfonyl)-L-prolylamino]-5-[4-[2-(2-ethyl-5,7-dimethylimidazo[4,5-b]pyridin-3-yl)ethyl]piperidin-1-yl]-5-oxopentanoic Acid], the IC50 amounted to 13.3 nM. The IC50 values of the last two compounds are within 1.5-fold of each other.
Regarding `O=C(O)[C@H](CCC(=O)N1CCC(CN2CCCC2=O)CC1)NC(=O)[C@@H]1CCCN1S(=O)(=O)c1cc(Cl)cc(Cl)c1` [Example 71, (2S)-2-[1-(3,5-Dichlorophenylsulfonyl)-L-prolylamino]-5-[4-(2-oxopyrrolidin-1-ylmethyl)piperidin-1-yl]-5-oxopentanoic Acid], the midpoint of inhibition, the IC50, lay at 37 nM.
In the case of `CC(C)NC(=S)NCC1CCN(C(=O)CC[C@H](NC(=O)[C@@H]2CCCN2S(=O)(=O)c2cc(Cl)cc(Cl)c2)C(=O)O)CC1` [Example 58, (2S)-2-[1-(3,5-Dichlorophenylsulfonyl)-L-prolylamino]-5-[4-[(N′-isopropylthioureido)methyl]piperidin-1-yl]-5-oxopentanoic Acid], the IC50 was found to be 166 nM.
Then `CC(C)(C)NC(=O)NCC1CCN(C(=O)CC[C@H](NC(=O)[C@@H]2CCCN2S(=O)(=O)c2cc(Cl)cc(Cl)c2)C(=O)O)CC1` [Example 56, (2S)-5-[4-[(N′-tert-Butylureido)methyl]piperidin-1-yl]-2-[1-(3,5-dichlorophenylsulfonyl)-L-prolylamino]-5-oxopentanoic Acid], with 23 nM.
As to `CN1CCN(C(=O)OCCC2CCN(C(=O)CC[C@H](NC(=O)[C@@H]3CCCN3S(=O)(=O)c3cc(Cl)cc(Cl)c3)C(=O)O)CC2)CC1` [Example 93, (2S)-2-[1-(3,5-Dichlorophenylsulfonyl)-L-prolylamino]-5-[4-[2-[(4-methylpiperazin-1-yl)carbonyloxy]ethyl]piperidin-1-yl]5-oxopentanoic Acid], it took 26.7 nM to reach half-maximal inhibition (IC50).
In turn, `CCN(CC)CCC1CCN(C(=O)CC[C@H](NC(=O)[C@@H]2CCCN2S(=O)(=O)c2cc(Cl)cc(Cl)c2)C(=O)O)CC1` [Example 91, (2S)-2-[1-(3,5-Dichlorophenylsulfonyl)-L-prolylamino]-5-[4-[2-(diethylamino)ethyl]piperidin-1-yl]-5-oxopentanoic Acid] registered an IC50 of 64.6 nM.
In the case of `Cc1ccc(S(=O)(=O)N2CCC[C@H]2C(=O)N[C@@H](CCC(=O)N2CCC(CN3CCCC3=O)CC2)C(=O)O)cc1` [Example 62, (2S)-5-Oxo-5-[4-[(2-oxopyrrolidin-1-yl)methyl]piperidin-1-yl]-2-[1-tosyl-L-prolylamino]pentanoic Acid], it took 188 nM to reach half-maximal inhibition (IC50).
`Cc1ccc(S(=O)(=O)N2CCC[C@H]2C(=O)N[C@@H](CCC(=O)N2CCN(Cc3ccccn3)CC2)C(=O)O)cc1` [Example 75, (2S)-5-Oxo-5-[4-(2-pyridylmethyl)piperazin-1-yl]-2-[[1-tosyl-L-prolyl]amino]pentanoic Acid]: the IC50 came to 101 nM.
Regarding `Cc1ccc(S(=O)(=O)N2CCC[C@H]2C(=O)N[C@@H](CNC(=O)N2CCC(CN3CCCCC3)CC2)C(=O)O)cc1` [Example 105, (2S)-3-[[4-(1-Piperidylmethyl)piperidin-1-ylcarbonyl]amino]-2-[N-tosyl-L-prolyl]aminopropionic Acid], the IC50 turned out to be 120 nM.
`CN(C)CCN1CCN(C(=O)CC[C@H](NC(=O)[C@@H]2CCCN2S(=O)(=O)c2cc(Cl)cc(Cl)c2)C(=O)O)CC1` [Example 84, (2S)-2-[1-(3,5-Dichlorophenylsulfonyl)-L-prolylamino]-5-[4-[2-(dimethylamino)ethyl]piperazin-1-yl]-5-oxopentanoic Acid] registered an IC50 of 6 nM.
In turn, `O=C(O)[C@H](CCC(=O)N1CCC(CCOC(=O)N2CCCC2)CC1)NC(=O)[C@@H]1CCCN1S(=O)(=O)c1cc(Cl)cc(Cl)c1` [Example 61, (2S)-2-[1-(3,5-Dichlorophenylsulfonyl)-L-prolylamino]-5-oxo-5-[4-[2-(pyrrolidin-1-ylcarbonyloxy)ethyl]piperidin-1-yl]pentanoic Acid] came in with an IC50 of 2.3 nM.
In turn, `O=C(O)[C@H](CCC(=O)N1CCC(CNc2ccncc2)CC1)NC(=O)[C@@H]1CCCN1S(=O)(=O)c1cc(Cl)cc(Cl)c1` [Example 99, (2S)-2-[1-(3,5-Dichlorophenylsulfonyl)-L-prolylamino]-5-oxo-5-[4-(4-pyridylaminomethyl)piperidin-1-yl]pentanoic Acid] registered an IC50 of 13.1 nM.
As for `CN(C)CC1CCN(C(=O)OC[C@H](NC(=O)[C@@H]2CCCN2S(=O)(=O)c2cc(Cl)cc(Cl)c2)C(=O)O)CC1` [Example 98, (2S)-2-[1-(3,5-Dichlorophenylsulfonyl)-L-prolyl]amino-3-[4-(dimethylaminomethyl)piperidin-1-ylcarbonyloxy]propionic Acid], the midpoint of inhibition, the IC50, lay at 17.7 nM.
The compound `Cc1ccc(S(=O)(=O)N2CCC[C@H]2C(=O)N[C@@H](CCC(=O)N2CCC(CNc3nccc(C(F)(F)F)n3)CC2)C(=O)O)cc1` [Example 64, (2S)-5-Oxo-2-[1-tosyl-L-prolyl]amino-5-[4-[[4-(trifluoromethyl)pyrimidin-2-yl]aminomethyl]piperidin-1-yl]pentanoic Acid] came in with an IC50 of 193 nM.
For `CC(C)S(=O)(=O)NCC1CCN(C(=O)CC[C@H](NC(=O)[C@@H]2CCCN2S(=O)(=O)c2cc(Cl)cc(Cl)c2)C(=O)O)CC1` [Example 60, (2S)-2-[1-(3,5-Dichlorophenylsulfonyl)-L-prolylamino]-5-[4-[(isopropylsulfonylamino)methyl]piperidin-1-yl]-5-oxopentanoic Acid] the value was 11.6 nM.
